Active and inactive are the calls of the source. No cut-off for these calls is given here.
What was measured:
HK-2 [1] = assay: Protection against cisplatin-induced nephrotoxicity in human HK-2 cells assessed as cell viability at 1 uM preincubated with compound for 2 hrs followed by cisplatin induction and measured after 72 hrs by MTT assay (reference value: 45.1 +/- 3.2%); assay type: functional; settings: time 74 hrs, read-out: Activity
[2] = Cytotoxicity against human HK-2 cells incubated for 72 hrs by MTT assay; assay type: toxicity, cell-based
HK-2 [3] = assay: Protection against cisplatin-induced nephrotoxicity in human HK-2 cells assessed as cell viability at 10 uM preincubated with compound for 2 hrs followed by cisplatin induction and measured after 72 hrs by MTT assay (reference value: 45.1 +/- 3.2%); assay type: functional; settings: time 74 hrs, read-out: Activity
HK-2 [4] = assay: Protection against cisplatin-induced nephrotoxicity in human HK-2 cells assessed as cell viability at 5 uM preincubated with compound for 2 hrs followed by cisplatin induction and measured after 72 hrs by MTT assay (reference value: 45.1 +/- 3.2%); assay type: functional; settings: time 74 hrs, read-out: Activity
HK-2 [5] = assay: Protection against cisplatin-induced nephrotoxicity in human HK-2 cells assessed as cell viability at 10 uM preincubated with compound for 2 hrs followed by cisplatin induction and measured after 72 hrs by MTT assay (reference value: 37.37 +/- 1.35%); assay type: functional; settings: time 74 hrs, read-out: Activity
HK-2 [6] = assay: Protection against cisplatin-induced nephrotoxicity in human HK-2 cells assessed as cell viability at 5 uM preincubated with compound for 2 hrs followed by cisplatin induction and measured after 72 hrs by MTT assay (reference value: 37.37 +/- 1.35%); assay type: functional; settings: time 74 hrs, read-out: Activity
HK-2 [7] = assay: Protection against cisplatin-induced nephrotoxicity in human HK-2 cells at 5 to 10 uM preincubated with compound for 2 hrs followed by cisplatin induction and measured after 72 hrs by MTT assay; assay type: functional, cell-based; settings: dose 5-10 µM, time 74.0 hrs
HK-2 [8] = assay: Protection against cisplatin-induced nephrotoxicity in human HK-2 cells assessed as cell viability at 1 uM preincubated with compound for 2 hrs followed by cisplatin induction and measured after 72 hrs by MTT assay (reference value: 37.37 +/- 1.35%); assay type: functional; settings: time 74 hrs, read-out: Activity
[9] = biological target: T1, Tyrosine-protein phosphatase non-receptor type 1 (Homo sapiens, UniProt P18031); assay: Inhibition of PTP1B (unknown origin)
T1 sequence (P18031 whole entry): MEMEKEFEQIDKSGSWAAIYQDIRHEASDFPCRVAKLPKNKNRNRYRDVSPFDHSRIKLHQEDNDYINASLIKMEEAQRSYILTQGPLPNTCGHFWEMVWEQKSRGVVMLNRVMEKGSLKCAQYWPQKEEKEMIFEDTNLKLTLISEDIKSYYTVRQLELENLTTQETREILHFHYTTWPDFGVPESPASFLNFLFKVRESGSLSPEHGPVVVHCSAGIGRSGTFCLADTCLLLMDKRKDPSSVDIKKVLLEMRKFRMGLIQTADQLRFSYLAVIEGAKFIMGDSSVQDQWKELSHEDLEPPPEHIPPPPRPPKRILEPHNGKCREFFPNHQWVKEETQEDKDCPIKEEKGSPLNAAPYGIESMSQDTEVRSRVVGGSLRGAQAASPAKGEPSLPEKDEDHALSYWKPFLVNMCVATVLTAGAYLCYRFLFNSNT

| SMILES | viability at 1 µM (HK-2 [1]) | IC50 at 72 h [2] | viability at 10 µM (HK-2 [3]) | viability at 5 µM (HK-2 [4]) | viability at 10 µM (HK-2 [5]) | viability at 5 µM (HK-2 [6]) | Activity (HK-2 [7]) | viability at 1 µM (HK-2 [8]) | IC50 [9] |
| --- | --- | --- | --- | --- | --- | --- | --- | --- | --- |
| C/C1=C\CC(C)(C)/C=C/CC2(C)Oc3c(C=O)c(O)c(C(=O)c4ccccc4)c(O)c3CC2CC1 (configuration not stated) | 61.1% | 7.72 µM | 42.7% | 66.8% | – | – | – | – | – |
| COc1c(CO)c2c(c(OC)c1C(=O)c1ccccc1)CC(C)C(C)(C)O2 (configuration not stated) | – | > 10 µM | – | – | 48.4% | 45.6% | Active | 40.1% | – |
| COc1c(C=O)c2c(c(OC)c1C(=O)c1ccccc1)CC1CCCCC1(C)O2 (configuration not stated) | – | > 10 µM | – | – | 44.9% | 35.2% | – | 34.1% | – |
| COc1c(CN2CCN(C)CC2)c(OC)c(C(=O)c2ccccc2)c2c1CC1C[C@@H]3[C@H](CC1(C)O2)C3(C)C (some centres not stated) | – | > 10 µM | – | – | 18.5% | 40.1% | – | 39.9% | – |
| C/C1=C\CC(C)(C)/C=C/CC2(C)Oc3c(c(O)c(C=O)c(O)c3C(=O)c3ccccc3)CC2CC1 (configuration not stated) | 60.3% | > 10 µM | 67.1% | 70.2% | – | – | – | – | – |
| CC12CCCCC1Cc1c(O)c(C=O)c(O)c(C(=O)c3ccccc3)c1O2 (configuration not stated) | – | > 10 µM | – | – | 42.5% | 41.3% | – | 33.6% | – |
| COc1c(CO)c(OC)c(C(=O)c2ccccc2)c2c1CC(C)C(C)(C)O2 (configuration not stated) | – | > 10 µM | – | – | 34.2% | 31.4% | – | 38.3% | – |
| COc1c2c(c(CN3CCN(C)CC3)c(OC)c1C(=O)c1ccccc1)OC1(C)CCCCC1C2 (configuration not stated) | – | > 10 µM | – | – | 37% | 37.1% | – | 40.2% | – |
| COc1c2c(c(C(=O)c3ccccc3)c(OC)c1C(=O)O)OC1(C)CCCC1C2 (configuration not stated) | – | > 10 µM | – | – | 31.8% | 35.2% | – | 37.2% | – |
| COc1c2c(c(C(=O)c3ccccc3)c(OC)c1C(=O)O)OC1(C)CCCCC1C2 (configuration not stated) | – | > 10 µM | – | – | 25.7% | 35.9% | – | 38.8% | – |
| C[C@@H]1CC[C@@H]([C@@H](c2ccccc2)c2c(O)c(C=O)c(O)c(C=O)c2O)[C@]2(C)CC[C@@H](C(C)(C)O)C=C12 | – | – | – | – | – | – | – | – | 5 µM |
| CC1Cc2c(O)c(C(=O)c3ccccc3)c(O)c(C=O)c2OC1(C)C (configuration not stated) | – | > 10 µM | – | – | 28.1% | 33.2% | – | 37.7% | – |
| COc1c(C=O)c2c(c(OC)c1C(=O)c1ccccc1)CC1C[C@@H]3[C@H](CC1(C)O2)C3(C)C (some centres not stated) | – | > 10 µM | – | – | 35.5% | 30.8% | – | 30.1% | – |
| COc1c2c(c(C(=O)c3ccccc3)c(OC)c1C(=O)O)OC1(C)C/C=C/C(C)(C)C/C=C(\C)CCC1C2 (configuration not stated) | 48.4% | > 10 µM | 65% | 60.4% | – | – | Active | – | – |
| COc1c(CO)c(OC)c(C(=O)c2ccccc2)c2c1CC1CCCCC1(C)O2 (configuration not stated) | – | > 10 µM | – | – | 44.6% | 44.3% | – | 38.8% | – |
| COc1c2c(c(CN3CCN(C)CC3)c(OC)c1C(=O)c1ccccc1)OC1(C)CCCC1C2 (configuration not stated) | – | > 10 µM | – | – | 38.3% | 39.4% | – | 36.4% | – |

| SMILES | viability at 1 µM (HK-2 [1]) | IC50 at 72 h [2] | viability at 10 µM (HK-2 [3]) | viability at 5 µM (HK-2 [4]) | viability at 10 µM (HK-2 [5]) | viability at 5 µM (HK-2 [6]) | Activity (HK-2 [7]) | viability at 1 µM (HK-2 [8]) | IC50 [9] |
| --- | --- | --- | --- | --- | --- | --- | --- | --- | --- |
| COc1c2c(c(C(=O)O)c(OC)c1C(=O)c1ccccc1)OC1(C)CCCCC1C2 (configuration not stated) | – | > 10 µM | – | – | 28% | 30.7% | – | 38.2% | – |
| COc1c(CO)c2c(c(OC)c1C(=O)c1ccccc1)CC1CCCC1(C)O2 (configuration not stated) | – | > 10 µM | – | – | 45.4% | 37.5% | – | 34.9% | – |
| COc1c(CN2CCN(C)CC2)c(OC)c(C(=O)c2ccccc2)c2c1CC1CCCC1(C)O2 (configuration not stated) | – | > 10 µM | – | – | 43.7% | 37.5% | – | 38% | – |
| COc1c(CO)c2c(c(OC)c1C(=O)c1ccccc1)CC1CC/C(C)=C/CC(C)(C)/C=C/CC1(C)O2 (configuration not stated) | 51.2% | > 10 µM | 83.3% | 73.6% | – | – | Active | – | – |
| CC12CCCC1Cc1c(O)c(C=O)c(O)c(C(=O)c3ccccc3)c1O2 (configuration not stated) | – | > 10 µM | – | – | 51.7% | 49.6% | Active | 41.5% | – |
| COc1c(C=O)c(OC)c(C(=O)c2ccccc2)c2c1CC1CCCC1(C)O2 (configuration not stated) | – | > 10 µM | – | – | 49.4% | 44.9% | – | 38.2% | – |
| COc1c(CO)c2c(c(OC)c1C(=O)c1ccccc1)CC1CCCCC1(C)O2 (configuration not stated) | – | > 10 µM | – | – | 36.9% | 41.8% | – | 37.7% | – |
| COc1c(C=O)c(OC)c(C(=O)c2ccccc2)c2c1CC1CCCCC1(C)O2 (configuration not stated) | – | > 10 µM | – | – | 30.1% | 34.4% | – | 35.3% | – |
| COc1c2c(c(C(=O)O)c(OC)c1C(=O)c1ccccc1)OC1(C)CCCC1C2 (configuration not stated) | – | > 10 µM | – | – | 32.6% | 29.6% | – | 32.3% | – |
| COc1c2c(c(C(=O)O)c(OC)c1C(=O)c1ccccc1)OC1(C)C[C@H]3[C@@H](CC1C2)C3(C)C (some centres not stated) | – | > 10 µM | – | – | 25.4% | 21.6% | – | 31.5% | – |
| COc1c2c(c(C(=O)O)c(OC)c1C(=O)c1ccccc1)OC1(C)C/C=C/C(C)(C)C/C=C(\C)CCC1C2 (configuration not stated) | 48.2% | > 10 µM | 68.2% | 64.4% | – | – | Active | – | – |
| COc1c(CN2CCN(C)CC2)c(OC)c(C(=O)c2ccccc2)c2c1CC1CC/C(C)=C/CC(C)(C)/C=C/CC1(C)O2 (configuration not stated) | 46.3% | 9.1 µM | 47.8% | 57.9% | – | – | – | – | – |
| COc1c(CO)c(OC)c(C(=O)c2ccccc2)c2c1CC1CCCC1(C)O2 (configuration not stated) | – | > 10 µM | – | – | 26.5% | 25.9% | – | 35% | – |
| COc1c(CN2CCN(C)CC2)c(OC)c(C(=O)c2ccccc2)c2c1CC1CCCCC1(C)O2 (configuration not stated) | – | > 10 µM | – | – | 25.9% | 24.2% | – | 30.4% | – |
| COc1c(C=O)c2c(c(OC)c1C(=O)c1ccccc1)CC1CC/C(C)=C/CC(C)(C)/C=C/CC1(C)O2 (configuration not stated) | 70.4% | > 10 µM | 67.9% | 79.2% | – | – | Active | – | – |
| COc1c2c(c(CN3CCN(C)CC3)c(OC)c1C(=O)c1ccccc1)OC1(C)C/C=C/C(C)(C)C/C=C(\C)CCC1C2 (configuration not stated) | 49.7% | 9.5 µM | 64.2% | 59.6% | – | – | Active | – | – |

Reference: ChEMBL document CHEMBL5550222, “Synthesis and Biological Evaluation of Novel Psidium Meroterpenoid Derivatives against Cisplatin-Induced Acute Kidney Injury” (J Med Chem, 2024)
